In the NIST ThermoML archive (doi:10.1016/j.tca.2009.10.001):

Assay: xn = mol fraction of the nth substance listed
Details: 101 kPa, Liquid; for viscosity: Capillary tube (Ostwald / Ubbelohde) method; for speed of sound: Linear variable-path acoustic interferometer; for mass density: Pycnometric method

CC#N [acetonitrile] + Cc1ccccc1
Details	mass density, 298.15 K [kg/m3]	mass density, 303.15 K [kg/m3]	mass density, 308.15 K [kg/m3]	speed of sound, 298.15 K [m/s]	speed of sound, 303.15 K [m/s]	speed of sound, 308.15 K [m/s]	viscosity, 298.15 K [mPa·s]	viscosity, 303.15 K [mPa·s]	viscosity, 308.15 K [mPa·s]
x2 = 0	775.3	769.9	764.7	1271.3	1251.9	1231.7	0.3696	0.3554	0.3414
x2 = 0.0506	784.6	779	773.6	1273.8	1253.9	1233.4	0.3809	0.3653	0.3503
x2 = 0.1082	794.1	788.4	782.9	1276.5	1256.3	1235.5	0.394	0.3772	0.3609
x2 = 0.1704	803.3	797.5	792	1279.3	1259	1238	0.408	0.39	0.3729
x2 = 0.2421	812.6	806.6	801.4	1282.4	1261.8	1240.9	0.4241	0.4045	0.3864
x2 = 0.3228	821.8	815.7	810.5	1285.7	1265	1244.3	0.4423	0.4211	0.4017
x2 = 0.4163	830.7	824.7	819.7	1289.2	1268.2	1247.8	0.4625	0.44	0.4193
x2 = 0.5288	839.6	833.8	828.7	1292	1270.9	1250.7	0.486	0.4614	0.4389
x2 = 0.6577	847.5	841.9	836.9	1294.5	1273.6	1253.5	0.5098	0.4834	0.4591
x2 = 0.8089	854.6	849.3	844.6	1296.7	1275.9	1256.3	0.5353	0.5069	0.4817

CCCC#N [butanenitrile] + Cc1ccccc1
Details	mass density, 298.15 K [kg/m3]	mass density, 303.15 K [kg/m3]	mass density, 308.15 K [kg/m3]	speed of sound, 298.15 K [m/s]	speed of sound, 303.15 K [m/s]	speed of sound, 308.15 K [m/s]	viscosity, 298.15 K [mPa·s]	viscosity, 303.15 K [mPa·s]	viscosity, 308.15 K [mPa·s]
x2 = 0	784.7	780.3	775.9	1271.4	1252.2	1233.9	0.5463	0.5255	0.5049
x2 = 0.082	792.7	788.1	783.6	1276.3	1256.5	1237.9	0.5484	0.5265	0.5053
x2 = 0.1673	800.8	796.1	791.5	1280.6	1260.4	1241.7	0.5504	0.5276	0.5058
x2 = 0.2537	808.6	803.8	799.2	1284.9	1264.5	1245.4	0.5522	0.5287	0.5064
x2 = 0.3488	816.8	812	807.4	1289.2	1268.6	1249.3	0.5541	0.5299	0.5069
x2 = 0.4436	824.5	819.7	815.1	1292.6	1272.2	1252.5	0.5559	0.5309	0.5074
x2 = 0.5435	832.2	827.3	822.8	1294.9	1274.6	1254.7	0.5576	0.5317	0.5079
x2 = 0.651	839.8	834.9	830.4	1296.7	1276.5	1256.5	0.5592	0.5324	0.5082
x2 = 0.759	846.9	841.9	837.4	1298	1277.4	1257.8	0.5607	0.5329	0.5084
x2 = 0.8771	854.1	849.1	844.6	1298.7	1278.3	1259	0.5622	0.5337	0.5088

CCC#N [propanenitrile] + Cc1ccccc1
Details	mass density, 298.15 K [kg/m3]	mass density, 303.15 K [kg/m3]	mass density, 308.15 K [kg/m3]	speed of sound, 298.15 K [m/s]	speed of sound, 303.15 K [m/s]	speed of sound, 308.15 K [m/s]	viscosity, 298.15 K [mPa·s]	viscosity, 303.15 K [mPa·s]	viscosity, 308.15 K [mPa·s]
x2 = 0	775.4	769.9	765.2	1252.4	1232.7	1213.7	0.4107	0.3991	0.3822
x2 = 0.0668	784.4	778.8	773.9	1257.2	1237	1217.6	0.4222	0.4087	0.3907
x2 = 0.1397	793.6	787.9	783	1262.2	1241.7	1222	0.4346	0.4194	0.4004
x2 = 0.2164	802.6	796.8	791.9	1267.3	1246.5	1226.7	0.4476	0.4306	0.4106
x2 = 0.3011	811.7	806	801.1	1272.9	1252	1232	0.4617	0.4432	0.422
x2 = 0.3905	820.5	814.9	810.1	1278.2	1257.1	1237.1	0.4765	0.4561	0.4341
x2 = 0.4917	829.4	823.9	819.1	1283	1262.1	1242.1	0.4927	0.4702	0.4475
x2 = 0.5989	837.7	832.3	827.6	1287.1	1266.2	1246.3	0.5082	0.4842	0.4606
x2 = 0.7174	845.7	840.5	835.8	1291.2	1270.4	1250.5	0.5247	0.4989	0.4748
x2 = 0.854	853.7	848.6	844	1295.2	1274.5	1255.2	0.5434	0.5158	0.4911
